Results on five molecules are retold here after ChEMBL document CHEMBL4725403, “Improved design of peptides exhibiting angiogenic activities for clinical applications” (Bioorg Med Chem, 2020).

Active and inactive are the calls of the source. The calls are words filed in the database; no cut-off is given here. Where a SMILES comes first, the peptide text is derived from it. Bridges are numbered along the chain shown (N, C = ends). [ ]: non-standard residue; d: D form. AEEA = NCCOCCOCC(=O)O

The nature of data set [1]: Stability of compound in human serum assessed as parent compound remaining after 6 hrs by HPLC-MS. It counts as ADME, cell-free. The settings on record: for Stabilty: 6 h.
Data set [2] in a line: Stability of compound in HUVEC cell lysates assessed as parent compound remaining after 6 hrs by HPLC-MS. The format is ADME, subcellular. The following applies: human; for Stabilty: huvec, 6 h.
The subject of data set [3] is HUVEC. The data set can be described thus: Induction of angiogenesis in HUVEC assessed as tube formation at 2 ug/ml after 18 hrs by inverted microscopy. The format is functional. The following applies: Homo sapiens, dose 2.0 µg/ml.
Data set [4] concerns HUVEC. Briefly: Induction of angiogenesis in HUVEC assessed as tube formation at 2 ug/ml after 2 hrs by inverted microscopy. It counts as functional. The following applies: Homo sapiens, dose 2.0 µg/ml.
Data set [5] has as its system HUVEC. The data set can be described thus: Induction of angiogenesis in HUVEC assessed as tube formation at 2 ug/ml upto 24 hrs by inverted microscopy. The format is functional. The settings on record: Homo sapiens, dose 2.0 µg/ml.

Turning to `CC(C)C[C@@H]1NC(=O)CNC(=O)[C@H](Cc2ccccc2)NC(=O)[C@H](C(C)C)NC(=O)[C@H](C(C)C)NC(=O)[C@H](CO)NC(=O)COCCOCCNC(=O)[C@H](N)CSSC[C@H](C(N)=O)NC(=O)CNC(=O)[C@H](CCCNC(=N)N)NC1=O`, the Stabilty entry in data set [1] and in data set [2] was “Stable” in each case. Besides, the outcome in data set [3] and in data set [4] was Active.
In the case of `CC(C)C[C@@H]1NC(=O)CNC(=O)[C@H](Cc2ccccc2)NC(=O)[C@H](C(C)C)NC(=O)[C@H](C(C)C)NC(=O)[C@H](CO)NC(=O)COCCOCCNC(=O)[C@@H](N)CSSC[C@@H](C(N)=O)NC(=O)CNC(=O)[C@H](CCCNC(=N)N)NC1=O`, the Stabilty entry in data set [1] and in data set [2] was “Stable” in each case. Besides, the outcome in data set [3], in data set [4] and in data set [5] was Active.
Take `CC(C)C[C@H](NC(=O)CNC(=O)[C@H](Cc1ccccc1)NC(=O)[C@@H](NC(=O)[C@@H](NC(=O)[C@H](CO)NC(=O)COCCOCCN)C(C)C)C(C)C)C(=O)N[C@@H](CCCNC(=N)N)C(N)=O` (H-[AEEA]SVVFGLR-NH2): the Stabilty entry in data set [2] was “Stable”.
For `CC(C)C[C@@H]1NC(=O)CNC(=O)[C@H](Cc2ccccc2)NC(=O)[C@H](C(C)C)NC(=O)[C@H](C(C)C)NC(=O)[C@H](CO)NC(=O)COCCOCCNC(=O)CC[C@@H](C(N)=O)NC(=O)[C@H](CCCNC(=N)N)NC1=O` ([AEEA]SVVFGLRE-NH2; lactam N-9), the remaining at 6 h in data set [1] (read-out: Stabilty) came out at 80%. Also, the Stabilty result in data set [2] is recorded as “Unstable”. The result in data set [3] and in data set [4] was Active.
As for H-SVVFGLR-NH2, the Stabilty entry in data set [1] was “Unstable”. Further, the remaining at 6 h in data set [2] (HUVEC cell lysates, read-out: Stabilty) was 50%. Also, the result in data set [3] and in data set [4] was Active.
